# Data reported in US11046731B2, “Zinc-binder based EBNA1-specific compounds” (priority 2018, dated 2021).
# Numbered stars: 1 amine (or outer) side, 2 acyl side, 3 side chain; on linkers, the order of the positions; unused ones are H or OH. Square brackets hold non-standard residues; d marks the D form. Peptide text beside a SMILES is read from it. * marks the point of attachment. X2 = O=C(c1ccc(/C=C/c2ccc(N[*:1])cc2)cc1)[*:2]; X1 = O=C(CN(Cc1ccccn1)Cc1ccccn1)*
# Experiments:
# [1] = system: EBV-positive C666-1 xenografts; test: C666-1 nude mice xenograft, intratumoral injection; assay type: in vivo, BALB/c nude mice; details: 18 days
# BZLF1 (Zta) and BMRF1 = test: IHC of EBV lytic proteins in C666-1-derived tumor tissues; assay type: in vivo, Epstein-Barr virus
# [2] = system: Rta, BMRF1 and gp350/220 in EBV-positive NPC43 cells; test: Western blot of EBV lytic proteins; assay type: cell-based, Epstein-Barr virus; details: 10 μM, 7 days
# [3] = system: EBV-positive NPC43, C666-1, Raji cells; details: 1-20 μM, 5 days
# [4] = system: EBV-negative HeLa xenografts; details: 4 μg/injection every three days, 19 days
smiles,measurement,setting,value
CSCC[C@H](NC(=O)[C@H](Cc1ccccc1)NC(=O)[C@H](Cc1ccc(O)cc1)NC(=O)c1ccc(/C=C/c2ccc(NC(=O)CN(Cc3ccccn3)Cc3ccccn3)cc2)cc1)C(=O)N[C@H](C(=O)N[C@@H](Cc1ccccc1)C(=O)O)C(C)C [ZRL5P2] (X1-[X2]YFMVF-OH),effect on tumor growth,[1]; 4 μg/injection intra-tumoral twice weekly,did not significantly affect tumor growth
same,changes in body or organ weights compared to the vehicle control,[1]; 4 μg/injection,did not cause significant changes
same,tumor areas positive for BMRF1 (IHC),BZLF1 (Zta) and BMRF1,1.15%
same,protein levels of Rta and BMRF1,[2],much weaker than that of ZRL5P4
same,cytotoxicity / growth inhibition in EBV-positive cells,[3],least efficient
same,changes in body weights compared to the control,[4],did not cause any significant changes
